1 compound from patent US7056908B2, “Pharmaceutical compositions and methods for preventing skin tumor formation and causing regression of existing tumors” (priority 1991, dated 2006) can be followed below.

In assay [1] the test system is primary keratinocytes. The assay is described as follows: Cornified envelope formation in primary keratinocytes. Type of assay: cell-based, mouse. To be noted: additional experiment, 60 nM bryostatin.
Description: Cornified Envelope Quantitation. Keratinocytes were analyzed for cornified envelope formation as described (Nagae, S. et al, “Effect of retinoic acid on cornified envelope formation: difference between spontaneous envelope formation in vivo or in vitro and expression of envelope competence,” J. Invest., Dermatol., 89: 51–58, 1987), with minor modifications. Floating cells were harvested by collecting culture medium from each 60 mm dish and combining with two washes using phosphate-buffered saline without Ca^2+ and Ms^+2 (PBS). Cells were pelleted for 5 minutes at 1000 rpm in a benchtop clinical centrifuge and resuspended in 100 μl of lysis buffer (2% sodium dodecyl sulfate (SDS) and 20 mM dithiothreitol in PBS). Attached cells were harvested in 250 μl lysis buffer, combined with the preparation of floating cells, and incubated at 95° for 10 minutes. The non-solubilized, intact cornified envelopes, characteristic of terminally differentiated keratinocytes, were counted using a hemocytometer (Nagae, S. et al, “Effect of retinoic acid on cornified envelope formation: difference between spontaneous envelope formation in vivo or in vitro and expression of envelope competence,” J. Invest. Dermatol., 89: 51–58, 1987).
Floating and attached cell populations were harvested and cornified envelopes isolated. Data are mean values for three separate dishes±standard error of the mean from one experiment.
7 day old primary keratinocytes were cultured with or without 60 nM bryostatin for 15 hours. […] Each data bar is the average value from duplicate dishes with the range indicated by error bars.
The test system of assay [2] is primary keratinocytes. Type of assay: cell-based, mouse. The conditions noted are these: 60 nM bryostatin for 1 day. How it is done:
EGF binding was assessed in 6-well tissue culture dishes plated at a cell density of 2.5×10^6 cells/well (Strickland, J. E. et al, “Interaction of epidermal growth factor with basal and differentiating epidermal cells of mice resistant and sensitive to carcinogenesis,” Carcinogenesis, 5: 735–740, 1984). […] A second set of cultures received, in addition, 1 μg/ml unlabelled EGF to assess non-specific binding of radioactive ligand. Following the incubation period, cultures were washed 4 times with ice-cold binding buffer, harvested in 1.5 ml lysis buffer (0.1 M tris (pH 7.4), 0.5% SDS, 1 mM EDTA), and radioactivity determined by scintillation counting.
Exposure of a variety of cultured cell types to TPA results in inhibition of EGF binding which is attributed to PKC-mediated phosphorylation of the EGF receptor (Diamond, L., “Tumor promoters and cell transformation,” In: D. Grunberger and S. P. Goff. (eds.), Mechanisms of Cellular Transformation by Carcinogenic Agents, pp. 73–133, New York: Pergamon Press. 1987).
Each point is the mean of trilpicate dishes±standard error of the mean.

Turning to `CCC/C=C/C=C/C(=O)O[C@H]1/C(=C/C(=O)OC)C[C@H]2C[C@H]([C@@H](C)O)OC(=O)C[C@H](O)C[C@@H]3C[C@H](OC(C)=O)C(C)(C)[C@](O)(C[C@@H]4C/C(=C/C(=O)OC)C[C@H](/C=C/C(C)(C)[C@]1(O)O2)O4)O3` [bryostatin], the “reduction of cornified envelope formation by bryostatin pre-treatment” value in assay [1] (TPA-treated cultures) and in assay [1] (staurosporine-treated cultures) was 70% each time. Besides, in assay [2] (average over a 4 hour period), the “block by bryostatin pre-treatment of staurosporine-mediated inhibition of 125I-EGF binding” value is 50%. Further, the “block by bryostatin pre-treatment of TPA-mediated inhibition of 125I-EGF binding” value in assay [2] (over a 4 hour period) is reported as “completely blocked”.
